Experiment [1] deals with Glo-Response ARE-luc2P HEK293 cell line. Kind of experiment: ARE luciferase reporter cell-based assay.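 Further: luciferase signal tracks Nrf2 activation of the ARE once compounds disrupt KEAP1-Nrf2 binding, read with One-Glo reagent, DMSO serving as low control.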 Conditions: Homo sapiens, HEK293, 24 h, average of results obtained. (In a reporter assay the amount or activity of a reporter protein is the signal.)
The target in experiment [2] is Kelch domain of human KEAP1 (321-624 aa) (Homo sapiens (Human), UniProt Q14145). Kind of experiment: KEAP1 KELCH ThermoFluor binding assay.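 Further: Ligand-induced melting temperature shift of E. coli-expressed KEAP1 Kelch protein, Kd estimated from concentration-response curves of ΔTm.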 Conditions: KEAP Kelch […], 1,8-ANS, pH 7.0, average of results obtained, read-out: Tf Kd. (In DSF a fluorescence change marks the thermal transition of the protein.)
Kelch domain of human KEAP1 (321-624 aa), sequence (Q14145 321-624): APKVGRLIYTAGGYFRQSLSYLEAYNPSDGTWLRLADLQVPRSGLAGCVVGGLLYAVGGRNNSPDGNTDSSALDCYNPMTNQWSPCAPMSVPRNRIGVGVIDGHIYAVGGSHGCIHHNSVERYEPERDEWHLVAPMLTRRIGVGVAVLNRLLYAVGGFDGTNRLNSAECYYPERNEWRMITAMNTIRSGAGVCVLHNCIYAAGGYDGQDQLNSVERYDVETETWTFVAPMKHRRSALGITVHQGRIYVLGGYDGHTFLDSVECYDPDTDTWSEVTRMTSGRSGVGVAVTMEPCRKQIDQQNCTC

The values below come from US10947252B2, “Inhibitors of KEAP1-Nrf2 protein-protein interaction” (Janssen Pharmaceutica NV, priority 2018, dated 2021).

As for `Cc1ccc([C@@H](c2ccn3c(C(F)(F)F)nnc3c2C)C(C)(C)C(=O)O)cc1CN1C[C@@]2(CCOC2)Oc2ncccc2S1(=O)=O` (single isomer, unassigned) [Example 382, (*S)-3-(3-(((*R)-1′,1′-Dioxido-4,5-dihydro-2H-spiro[furan-3,4′-pyrido[2,3-b][1,4,5]oxathiazepin]-2′(3′H)-yl)methyl)-4-methylphenyl)-2,2-dimethyl-3-(8-methyl-3-(trifluoromethyl)-[1,2,4]triazolo[4,3-a]pyridin-7-yl)propanoic Acid], the EC50 in experiment [1] stood at 1.8 nM. For the same molecule, in experiment [2], the dissociation constant (Kd) was less than 1 nM.

In experiment [1], `Cc1ccc([C@@H](CC(=O)O)c2ccc3c(nnn3CC3CC3)c2C)cc1CN1C[C@]2(C)CCCN2c2ncccc2S1(=O)=O` (relative stereo) [Example 11, 3-(1-(Cyclopropylmethyl)-4-methyl-1H-benzo[d][1,2,3]triazol-5-yl)-3-(4-methyl-3-(((*S)-7a-methyl-5,5-dioxido-7a,8,9,10-tetrahydropyrido[2,3-f]pyrrolo[2,1-d][1,2,5]thiadiazepin-6(7H)-yl)methyl)phenyl)propanoic Acid] came in with an EC50 of 4.2 nM. The Kd in experiment [2] was 0.024 nM.

The molecule `Cc1ccc([C@H](CC(=O)O)c2ccn3c(C(F)(F)F)nnc3c2C)cc1CN1C[C@H]2COCCN2c2ncc(Cl)cc2S1(=O)=O` (single isomer, unassigned) [Example 197, (*S)-3-(3-(((*S)-3-Chloro-5,5-dioxido-7a,8,10,11-tetrahydro-[1,4]oxazino[3,4-d]pyrido[2,3-f][1,2,5]thiadiazepin-6(7H)-yl)methyl)-4-methylphenyl)-3-(8-methyl-3-(trifluoromethyl)-[1,2,4]triazolo[4,3-a]pyridin-7-yl)propanoic Acid] yielded an EC50 in experiment [1] of 1.8 nM. Besides, the Kd in experiment [2] is less than 1 nM.

As to `Cc1ccc([C@@H](c2ccn3c(C(F)(F)F)nnc3c2C)C(C)(C)C(=O)O)nc1CN1CC2(CC2)Oc2nc(OCCN3CCCC3)c(C)cc2S1(=O)=O` (single isomer, unassigned) [Example 634, (*S)-2,2-Dimethyl-3-(8-methyl-3-(trifluoromethyl)-[1,2,4]triazolo[4,3-a]pyridin-7-yl)-3-(5-methyl-6-((8′-methyl-1′,1′-dioxido-7′-(2-(pyrrolidin-1-yl)ethoxy)spiro[cyclopropane-1,4′-pyrido[2,3-b][1,4,5]oxathiazepin]-2′(3′H)-yl)methyl)pyridin-2-yl)propanoic Acid], the EC50 in experiment [1] amounted to 9.53 nM. In experiment [2], the Kd is less than 1 nM.

For the molecule `Cc1ccc(C(CC(=O)O)c2ccn3c(C(F)F)nnc3c2C)cc1CN1C[C@]2(C)CCCN2c2ncccc2S1(=O)=O` (stereo in doubt) [Example 475, 3-(3-(Difluoromethyl)-8-methyl-[1,2,4]triazolo[4,3-a]pyridin-7-yl)-3-(4-methyl-3-(((*S)-7a-methyl-5,5-dioxido-7a,8,9,10-tetrahydropyrido[2,3-f]pyrrolo[2,1-d][1,2,5]thiadiazepin-6(7H)-yl)methyl)phenyl)propanoic Acid], it took 406 nM to reach a half-maximal effect in experiment [1] (EC50). The Kd in experiment [2] was less than 1 nM.

Regarding `Cc1ccc([C@@H](CC(=O)O)c2ccc3c(nnn3CC3CC3)c2C)cc1CN1C[C@]2(C)CCCN2c2ncccc2S1(=O)=O` (single isomer, unassigned) [Example 13, (*R)-3-(1-(Cyclopropylmethyl)-4-methyl-1H-benzo[d][1,2,3]triazol-5-yl)-3-(4-methyl-3-(((*S)-7a-methyl-5,5-dioxido-7a,8,9,10-tetrahydropyrido[2,3-f]pyrrolo[2,1-d][1,2,5]thiadiazepin-6(7H)-yl)methyl)phenyl)propanoic Acid], in experiment [1], the half-maximal effective concentration (EC50) was found to be 37.8 nM. Moreover, the equilibrium dissociation constant (Kd) in experiment [2] turned out to be 0.079 nM.

As to `Cc1cc2cc(C(CC(=O)O)c3ccc(C)c(CN4C[C@H]5CCCCN5c5ncccc5S4(=O)=O)c3)n(C)c2nn1` (stereo in doubt) [Example 443, 3-(3,7-Dimethyl-7H-pyrrolo[2,3-c]pyridazin-6-yl)-3-(3-(((*R)-5,5-dioxido-7,7a,8,9,10,11-hexahydro-6H-dipyrido[2,1-d:2′,3′-f][1,2,5]thiadiazepin-6-yl)methyl)-4-methylphenyl)propanoic Acid], in experiment [1], the EC50 was determined as 1100 nM. Further, the Kd in experiment [2] is less than 1 nM.

Turning to `Cc1ccc(C(CC(=O)O)c2ccn3c(C)nnc3c2)cc1CN1CC(C)(C)Oc2ccccc2S1(=O)=O` (racemic) [Example 161, (R/S)-3-(3-((4,4-Dimethyl-1,1-dioxido-3,4-dihydro-2H-benzo[b][1,4,5]oxathiazepin-2-yl)methyl)-4-methylphenyl)-3-(3-methyl-[1,2,4]triazolo[4,3-a]pyridin-7-yl)propanoic Acid], in experiment [1], a half-maximal effect (EC50) was put at 15900 nM. Also, the dissociation constant (Kd) in experiment [2] came to 2.8 nM.

Consider `Cc1ccc(C(CC(=O)O)c2ccn3c(C(F)F)nnc3c2C)cc1CN1C[C@@H]2COCCN2c2ncccc2S1(=O)=O` (stereo in doubt) [Example 457, 3-(3-(Difluoromethyl)-8-methyl-[1,2,4]triazolo[4,3-a]pyridin-7-yl)-3-(3-(((*R)-5,5-dioxido-7a,8,10,11-tetrahydro-[1,4]oxazino[3,4-d]pyrido[2,3-f][1,2,5]thiadiazepin-6(7H)-yl)methyl)-4-methylphenyl)propanoic Acid], for which the response in experiment [1] was half-maximal at 479 nM (EC50). For the same molecule, the dissociation constant Kd in experiment [2] came out at 1.02 nM.

Molecule `Cc1cnc2c(c1)S(=O)(=O)N(Cc1cc([C@H](c3ccn4c(C(F)(F)F)nnc4c3C)C(C)(C)C(=O)O)cnc1C)CC1(CCOCC1)O2` (single isomer, unassigned) [Example 585, (*S)-2,2-Dimethyl-3-(8-methyl-3-(trifluoromethyl)-[1,2,4]triazolo[4,3-a]pyridin-7-yl)-3-(6-methyl-5-((8′-methyl-1′,1′-dioxido-2,3,5,6-tetrahydrospiro[pyran-4,4′-pyrido[2,3-b][1,4,5]oxathiazepin]-2′(3′H)-yl)methyl)pyridin-3-yl)propanoic Acid] displayed an EC50 in experiment [1] of 253 nM. The Kd in experiment [2] was less than 1 nM.

Regarding `Cc1ccc([C@H](c2ccc3c(nnn3C3CC3)c2C)C(C)(C)C(=O)O)cc1CN1CC2(CC2)Oc2nc(N[C@@H](C)CN3CCCCC3)c(C)cc2S1(=O)=O` (single isomer, unassigned) [Example 660, (*R)-3-(1-Cyclopropyl-4-methyl-1H-benzo[d][1,2,3]triazol-5-yl)-2,2-dimethyl-3-(4-methyl-3-((8′-methyl-1′,1′-dioxido-7′-(((S)-1-(piperidin-1-yl)propan-2-yl)amino)spiro[cyclopropane-1,4′-pyrido[2,3-b][1,4,5]oxathiazepin]-2′(3′H)-yl)methyl)phenyl)propanoic Acid], a half-maximal effect in experiment [1] (EC50) was put at 235 nM. The Kd in experiment [2] amounted to 681 nM.

`Cc1ccc(C(CC(=O)O)c2ccn3c(C(F)(F)F)nnc3c2C)nc1CN1CC2CCCCN2c2ncc(C#N)cc2S1(=O)=O` (stereo not shown) [Example 33, 3-(6-((3-Cyano-5,5-dioxido-7,7a,8,9,10,11-hexahydro-6H-dipyrido[2,1-d:2′,3′-f][1,2,5]thiadiazepin-6-yl)methyl)-5-methylpyridin-2-yl)-3-(8-methyl-3-(trifluoromethyl)-[1,2,4]triazolo[4,3-a]pyridin-7-yl)propanoic Acid] displayed an EC50 in experiment [1] of 30.6 nM. In addition, the Kd in experiment [2] is less than 1 nM.

Consider `Cc1ccc(C(CC(=O)O)c2ccn3c(C(F)(F)F)nnc3c2C)cc1CN1CC2(COC2)Oc2ncccc2S1(=O)=O` (stereo not shown) [Example 259, 3-(3-((1′,1′-Dioxidospiro[oxetane-3,4′-pyrido[2,3-b][1,4,5]oxathiazepin]-2′(3′H)-yl)methyl)-4-methylphenyl)-3-(8-methyl-3-(trifluoromethyl)-[1,2,4]triazolo[4,3-a]pyridin-7-yl)propanoic Acid], for which the half-maximal effective concentration (EC50) in experiment [1] worked out at 201 nM. In addition, the dissociation constant Kd in experiment [2] was less than 1 nM.

In experiment [1], `Cc1ccc([C@@H](CC(=O)O)c2ccn3c(C)nnc3c2)cc1CN1C[C@H]2CCCN2c2ncccc2S1(=O)=O` (single isomer, unassigned) [Example 164, (*R)-3-(3-(((R)-5,5-Dioxido-7a,8,9,10-tetrahydropyrido[2,3-f]pyrrolo[2,1-d][1,2,5]thiadiazepin-6(7H)-yl)methyl)-4-methylphenyl)-3-(3-methyl-[1,2,4]triazolo[4,3-a]pyridin-7-yl)propanoic Acid] came in with a concentration for a half-maximal effect (EC50) of 11200 nM. Besides, the Kd in experiment [2] came to 2.3 nM.

In experiment [1], `Cc1ccc([C@H](CC(=O)O)c2ccn3c(C(F)(F)F)nnc3c2C)cc1CN1C[C@H]2CCN2c2ncccc2S1(=O)=O` (single isomer, unassigned) [Example 294, (*S)-3-(3-(((*R)-5,5-Dioxido-7,7a, 8,9-tetrahydro-6H-azeto[2,1-d]pyrido[2,3-f][1,2,5]thiadiazepin-6-yl)methyl)-4-methylphenyl)-3-(8-methyl-3-(trifluoromethyl)-[1,2,4]triazolo[4,3-a]pyridin-7-yl)propanoic Acid] came in with a concentration for a half-maximal effect (EC50) of 270 nM. Moreover, the Kd in experiment [2] was found to be 1.61 nM.

`Cc1ncc([C@H](c2ccc3c(nnn3C3CC3)c2C)C(C)(C)C(=O)O)cc1CN1CC2(COC2)Oc2ncccc2S1(=O)=O` (single isomer, unassigned) [Example 612, (*S)-3-(1-Cyclopropyl-4-methyl-1H-benzo[d][1,2,3]triazol-5-yl)-3-(5-((1′,1′-dioxidospiro[oxetane-3,4′-pyrido[2,3-b][1,4,5]oxathiazepin]-2′(3′H)-yl)methyl)-6-methylpyridin-3-yl)-2,2-dimethylpropanoic Acid] displayed a concentration giving a half-maximal response (EC50) in experiment [1] of 19900 nM. Moreover, the Kd in experiment [2] stood at 61500 nM.

For `Cc1cnc2c(c1)S(=O)(=O)N(Cc1nc([C@H](CC(=O)O)c3ccn4c(C(F)(F)F)nnc4c3C)ccc1C)C[C@@H]1CCCCN21` (single isomer, unassigned) [Example 489, (*R)-3-(8-Methyl-3-(trifluoromethyl)-[1,2,4]triazolo[4,3-a]pyridin-7-yl)-3-(5-methyl-6-(((*S)-3-methyl-5,5-dioxido-7,7a,8,9,10,11-hexahydro-6H-dipyrido[2,1-d:2′,3′-f][1,2,5]thiadiazepin-6-yl)methyl)pyridin-2-yl)propanoic Acid], a half-maximal effect in experiment [1] (EC50) was put at 29.8 nM. The Kd in experiment [2] was less than 1 nM.

Usually EC50 stands for the concentration giving half of the maximal effect. High values mean a need for much substance, low ones an effect from little substance. What is called Kd is a measure of binding affinity in units of concentration.
